Measurements taken from US20030073618A1, “Compounds comprising disulfide-containing peptides and nitrogenous bases, and medical uses thereof” (priority 2001, published 2003).
Where two headings read alike, the source gives them in different places.

How the values were obtained:
HIV = assay type: in vivo; set-up: Hemoglobin / Platelets / Leukocytes / ESR: unit not given beside the values; (CD25+) / HLA-DR / (CD16) / IgA / IgM / IgG / CIC / (CD20+) / CD4+ / CD8+: unit not given here; settings: for Lymphocyte count / Weight gained / Karnovsky score: Ex. 13; for Karnovsky score: on admission 75; for Erythrocytes / Hemoglobin / Leukocytes / Monocytes / Platelets / Segmented neutrophils / Stab neutrophils / ESR: general blood test; for (CD16) / (CD20+) / (CD25+) / CD4+ / CD4/CD8 / CD8+ / CIC / HLA-DR / IgA / IgG / IgM: immune blood test
[1] = tested on: mycobacterium tuberculosis; settings: for CD4+ / CD4/CD8 / CD8+ / IL-1 / IL-4 / IL-6 / IL-8 / IL-12 / Lymphocytes: blood immune test; for ESR / Erythrocytes / Hemoglobin / Leukocytes / Monocytes / Platelets / Segmented neutrophils / Stab neutrophils: general blood test

Structure (SMILES): Cc1cn([C@H]2C[C@H](O)[C@@H](COP(=O)(O)N[C@@H](CCC(=O)N[C@@H](CSSC[C@H](NC(=O)CC[C@H](N)C(=O)O)C(=O)NCC(=O)[O][Zn])C(=O)NCC(=O)[O][Zn])C(=O)O)O2)c(=O)[nH]c1=O [Zn2-GSSG-TMP]
- Viral load (HIV; 1-month treatment): 66000 copies of HIV RNA/ml
- Lymphocyte count (HIV; after 1-month treatment): 1276
- Weight gained (HIV; after 1-month treatment): 1.8 kg
- Karnovsky score (HIV; after 1-month treatment): 80
- Lymphocyte count (HIV; after completion of treatment): 2295
- Weight gained (HIV; after completion of treatment): 2.5 kg
- Karnovsky score (HIV; after completion of treatment): 90
- Viral load (HIV; Initial value): 80000 copies of HIV RNA/ml
- Viral load (HIV; Treatment completion): 15000 copies of HIV RNA/ml
- Erythrocytes (HIV; 01.04.96): 3.9
- Hemoglobin (HIV; 01.04.96): 126
- Leukocytes (HIV; 01.04.96): 3.5
- Monocytes (HIV; 01.04.96): 2
- Platelets (HIV; 01.04.96): 180
- Segmented neutrophils (HIV; 01.04.96): 41
- Stab neutrophils (HIV; 01.04.96): 3
- ESR (HIV; 03.04.96): 21
- Erythrocytes (HIV; 03.04.96): 3.9
- Hemoglobin (HIV; 03.04.96): 125
- Leukocytes (HIV; 03.04.96): 2.6
- Monocytes (HIV; 03.04.96): 7
- Platelets (HIV; 03.04.96): 170
- Segmented neutrophils (HIV; 03.04.96): 47
- Stab neutrophils (HIV; 03.04.96): 8
- ESR (HIV; 13.03.96): 18
- Erythrocytes (HIV; 13.03.96): 5
- Hemoglobin (HIV; 13.03.96): 160
- Leukocytes (HIV; 13.03.96): 2.4
- Monocytes (HIV; 13.03.96): 2
- Platelets (HIV; 13.03.96): 200
- Segmented neutrophils (HIV; 13.03.96): 48
- Stab neutrophils (HIV; 13.03.96): 5
- ESR (HIV; 15.05.96): 12
- Erythrocytes (HIV; 15.05.96): 4.2
- Hemoglobin (HIV; 15.05.96): 136
- Leukocytes (HIV; 15.05.96): 4.5
- Monocytes (HIV; 15.05.96): 3
- Platelets (HIV; 15.05.96): 190
- Segmented neutrophils (HIV; 15.05.96): 49
- Stab neutrophils (HIV; 15.05.96): 7
- ESR (HIV; 16.04.96): 20
- Erythrocytes (HIV; 16.04.96): 4
- Hemoglobin (HIV; 16.04.96): 129
- Leukocytes (HIV; 16.04.96): 2.9
- Monocytes (HIV; 16.04.96): 2
- Platelets (HIV; 16.04.96): 180
- Segmented neutrophils (HIV; 16.04.96): 45
- Stab neutrophils (HIV; 16.04.96): 8
- ESR (HIV; 28.03.96): 16
- Erythrocytes (HIV; 28.03.96): 4.3
- Hemoglobin (HIV; 28.03.96): 136
- Leukocytes (HIV; 28.03.96): 2.9
- Monocytes (HIV; 28.03.96): 2
- Segmented neutrophils (HIV; 28.03.96): 35
- Stab neutrophils (HIV; 28.03.96): 4
- (CD16) (HIV; 03.04.96): 198
- (CD20+) (HIV; 03.04.96): 217
- (CD25+) (HIV; 03.04.96): 207
- CD4+ (HIV; 03.04.96): 247
- CD4/CD8 (HIV; 03.04.96): 0.89
- CD8+ (HIV; 03.04.96): 277
- CIC (HIV; 03.04.96): 0.175
- HLA-DR (HIV; 03.04.96): 237
- IgA (HIV; 03.04.96): 2.1
- IgG (HIV; 03.04.96): 20
- IgM (HIV; 03.04.96): 4.6
- (CD16) (HIV; 13.03.96): 216
- (CD20+) (HIV; 13.03.96): 256
- (CD25+) (HIV; 13.03.96): 226
- CD4+ (HIV; 13.03.96): 276
- CD4/CD8 (HIV; 13.03.96): 0.78
- CD8+ (HIV; 13.03.96): 354
- CIC (HIV; 13.03.96): 0.09
- HLA-DR (HIV; 13.03.96): 354
- IgA (HIV; 13.03.96): 1.8
- IgG (HIV; 13.03.96): 18.8
- IgM (HIV; 13.03.96): 2.6
- (CD16) (HIV; 15.05.96): 505
- (CD20+) (HIV; 15.05.96): 390
- (CD25+) (HIV; 15.05.96): 482
- CD4+ (HIV; 15.05.96): 574
- CD4/CD8 (HIV; 15.05.96): 0.96
- CD8+ (HIV; 15.05.96): 597
- CIC (HIV; 15.05.96): 0.075
- HLA-DR (HIV; 15.05.96): 665
- IgA (HIV; 15.05.96): 1.5
- IgG (HIV; 15.05.96): 28
- IgM (HIV; 15.05.96): 3.1
- (CD16) (HIV; 17.04.96): 332
- (CD20+) (HIV; 17.04.96): 306
- (CD25+) (HIV; 17.04.96): 332
- CD4+ (HIV; 17.04.96): 319
- CD4/CD8 (HIV; 17.04.96): 0.86
- CD8+ (HIV; 17.04.96): 370
- CIC (HIV; 17.04.96): 0.11
- HLA-DR (HIV; 17.04.96): 434
- IgA (HIV; 17.04.96): 1.6
- IgG (HIV; 17.04.96): 24
- IgM (HIV; 17.04.96): 5.2

Structure (SMILES): N[C@@H](CCC(=O)N[C@@H](CSSC[C@H](NC(=O)CC[C@H](NP(=O)(O)OC[C@H]1O[C@@H](n2cnc3c(=O)[nH]cnc32)[C@H](O)[C@@H]1O)C(=O)O)C(=O)NCC(=O)[O-])C(=O)NCC(=O)[O-])C(=O)O.[Li+].[Li+] [Example 16]
- CD4+ ([1]; 19.12.98): 860
- CD4/CD8 ([1]; 19.12.98): 1.53
- CD8+ ([1]; 19.12.98): 563
- IL-1 ([1]; 19.12.98): 46
- IL-4 ([1]; 19.12.98): 37
- IL-6 ([1]; 19.12.98): 44
- IL-8 ([1]; 19.12.98): 50
- IL-12 ([1]; 19.12.98): 39
- Lymphocytes ([1]; 19.12.98): 1400
- CD4+ ([1]; 20.10.98): 199
- CD4/CD8 ([1]; 20.10.98): 0.56
- CD8+ ([1]; 20.10.98): 357
- IL-1 ([1]; 20.10.98): 22
- IL-4 ([1]; 20.10.98): 32
- IL-6 ([1]; 20.10.98): 16
- IL-8 ([1]; 20.10.98): 23
- IL-12 ([1]; 20.10.98): 14
- Lymphocytes ([1]; 20.10.98): 832
- CD4+ ([1]; 21.01.99): 892
- CD4/CD8 ([1]; 21.01.99): 1.50
- CD8+ ([1]; 21.01.99): 594
- IL-1 ([1]; 21.01.99): 39
- IL-4 ([1]; 21.01.99): 34
- IL-6 ([1]; 21.01.99): 39
- IL-8 ([1]; 21.01.99): 48
- IL-12 ([1]; 21.01.99): 47
- Lymphocytes ([1]; 21.01.99): 1680
- CD4+ ([1]; 21.11.98): 527
- CD4/CD8 ([1]; 21.11.98): 1.25
- CD8+ ([1]; 21.11.98): 422
- IL-1 ([1]; 21.11.98): 29
- IL-4 ([1]; 21.11.98): 30
- IL-6 ([1]; 21.11.98): 29
- IL-8 ([1]; 21.11.98): 45
- IL-12 ([1]; 21.11.98): 28
- Lymphocytes ([1]; 21.11.98): 1350
- ESR ([1]; 19.12.98): 13
- Erythrocytes ([1]; 19.12.98): 4.3
- Hemoglobin ([1]; 19.12.98): 132
- Leukocytes ([1]; 19.12.98): 5.2
- Monocytes ([1]; 19.12.98): 2
- Platelets ([1]; 19.12.98): 230
- Segmented neutrophils ([1]; 19.12.98): 51
- Stab neutrophils ([1]; 19.12.98): 1
- ESR ([1]; 20.10.98): 50
- Erythrocytes ([1]; 20.10.98): 3.7
- Hemoglobin ([1]; 20.10.98): 108
- Leukocytes ([1]; 20.10.98): 9.9
- Monocytes ([1]; 20.10.98): 12
- Platelets ([1]; 20.10.98): 260
- Segmented neutrophils ([1]; 20.10.98): 57
- Stab neutrophils ([1]; 20.10.98): 12
- ESR ([1]; 21.01.99): 11
- Erythrocytes ([1]; 21.01.99): 4.2
- Hemoglobin ([1]; 21.01.99): 128
- Leukocytes ([1]; 21.01.99): 6.8
- Monocytes ([1]; 21.01.99): 5
- Platelets ([1]; 21.01.99): 210
- Segmented neutrophils ([1]; 21.01.99): 50
- Stab neutrophils ([1]; 21.01.99): 3
- ESR ([1]; 21.11.98): 27
- Erythrocytes ([1]; 21.11.98): 4.2
- Hemoglobin ([1]; 21.11.98): 128
- Leukocytes ([1]; 21.11.98): 5.2
- Monocytes ([1]; 21.11.98): 4
- Platelets ([1]; 21.11.98): 210
- Segmented neutrophils ([1]; 21.11.98): 53
- Stab neutrophils ([1]; 21.11.98): 6
